Experimental data reported in PMC5653355, “Identification of two immortalized cell lines, ECV304 and bEnd3, for in vitro permeability studies of blood-brain barrier” (PLoS ONE, 2017).

Columns and labels:
[1] = Permeability (transport study) across ECV304 monoculture model; settings: human
Experimental: (§2) For the generation of mono-culture models, ECV304 or bEnd3 cells were seeded on the upper surface of the membrane in Polyester Transwell inserts (0.4 μM pore size, 6.5 mm diameter, 24 well, Costar, Kennebunk, ME, USA) at a density of 5 × 10^4 and 8 × 10^4/cm^2, respectively. […] The culture medium (0.25 ml in the apical compartment and 1 ml in the basolateral compartment to avoid hydrostatic pressure) was replenished every day.
(§3) On day 5~7 after seeding cells, the TEER across cell layers was measured before initiating the transport study by replacing the medium in the apical compartment with tested compounds dissolved in HBSS. […] At indicated time points of 15, 30, 45 and 60 min, the inserts were transferred into new wells containing fresh HBSS to maintain sink conditions. […] Other compounds were analyzed by liquid chromatography tandem mass spectrometer (LC-MS/MS).
(§4) The cleared volume was determined by dividing the compound amount in basolateral compartment by the compound concentration in apical compartment. The slope of the cumulative clearance versus time was calculated by linear regression analysis and denoted as permeability coefficient (PEall) × surface area of the membrane insert (S, 0.33 cm^2). The PEblank of blank inserts was included to calculate the PEcell for cell layers themselves using the following equation: 1/PEcellS = 1/PEallS—1/PEblankS.

[2] = Permeability (transport study) across bEnd3 monoculture model; settings: mouse
Experimental: as §2, §3, §4

[3] = test system: ECV304 cell layers; test: Permeability (transport study) across ECV304 monoculture model
Experimental: as §2, §3, §4

[4] = test system: bEnd3 cell layers; test: Permeability (transport study) across bEnd3 monoculture model
Experimental: as §2, §3, §4

[5] = test system: ECV304 cell layers; settings: cited from earlier work
[6] = test system: bEnd3 co-cultured with rat glioma C6 cells; test: Permeability to Lucifer yellow in bEnd3 co-culture model with C6 cells; assay type: in vitro ADME, mouse; settings: Lucifer yellow 50 μM
Experimental: (§1) For the generation of mono-culture models, ECV304 or bEnd3 cells were seeded on the upper surface of the membrane in Polyester Transwell inserts ([…] pore size, 6.5 mm diameter, 24 well, Costar, Kennebunk, ME, USA) at a density of 5 × 10^4 and 8 × 10^4/cm^2, respectively. For the generation of co-culture models, C6 cells were seeded on the lower surface of the membrane at a density of 5 × 10^4/cm^2 and incubated for 2 h to allow cell attachment before the seeding of ECV304 or bEnd3 cells.

[7] = test system: ECV304 co-cultured with rat glioma C6 cells; test: Permeability to Lucifer yellow in ECV304 co-culture model with C6 cells; assay type: in vitro ADME, human; settings: Lucifer yellow 50 μM
Experimental: as §1

| Molecule | Papp at 60 min [1] | Papp at 60 min [2] | also measured |
| --- | --- | --- | --- |
| C[C@H]1O[C@@H](O[C@H]2[C@@H](O)C[C@H](O[C@H]3[C@@H](O)C[C@H](O[C@H]4CC[C@@]5(C)[C@H](CC[C@@H]6[C@@H]5C[C@@H](O)[C@]5(C)[C@@H](C7=CC(=O)OC7)CC[C@]65O)C4)O[C@@H]3C)O[C@@H]2C)C[C@H](O)[C@@H]1O [Digoxin, digoxin] | 3.29 ± 0.16 ×10⁻⁶ cm/s | 6.24 ± 0.27 ×10⁻⁶ cm/s | – |
| CC(C)NCC(O)COc1cccc2ccccc12 (stereo not drawn) [Propranolol, propranolol] | 28.4 ± 1.25 ×10⁻⁶ cm/s | 29.7 ± 1.44 ×10⁻⁶ cm/s | permeability ratio of transcellular marker propranolol to paracellular marker Lucifer yellow ([3]; ECV304 cells, monoculture): 2.5; permeability ratio of transcellular marker propranolol to paracellular marker Lucifer yellow ([4]; bEnd3 cells, monoculture): 1.2 |
| C=C[C@H]1C[N@@]2CC[C@H]1C[C@@H]2[C@@H](O)c1ccnc2ccc(OC)cc12 [Quinidine, quinidine] | 24.5 ± 1.61 ×10⁻⁶ cm/s | 26.8 ± 0.68 ×10⁻⁶ cm/s | – |
| COC(=O)c1ccccc1-c1c2ccc(=N)cc-2oc2cc(N)ccc12 [R123, Rhodamine 123] | 12.4 ± 0.91 ×10⁻⁶ cm/s | 22.3 ± 2.8 ×10⁻⁶ cm/s | – |
| Lucifer yellow | – | – | permeability of Lucifer yellow in ECV304 monolayer, published before [5]: 10.4 ×10⁻⁶ cm/s; increase of permeability to Lucifer yellow, co-culture with C6 cells versus monoculture [6]: 2 fold; increase of permeability to Lucifer yellow, co-culture with C6 cells versus monoculture [7]: 2.2 fold; permeability to Lucifer yellow ([3]; ECV304 monoculture model, Lucifer yellow 50 μM, day 5~7 after seeding, mean ± SD, n = 3): 11.17 ± 0.87 × 10^−6 cm/s; permeability to Lucifer yellow ([4]; bEnd3 monoculture model, Lucifer yellow 50 μM, day 5~7 after seeding, mean ± SD, n = 3): 23.68 ± 1.71 × 10^−6 cm/s |
